Laboratory results taken from BindingDB's records for PubMed 2017157 (Medical Research Service, 1991).

Target: D(2) dopamine receptor (Mus musculus, UniProt P61168)
Sequence (P61168 whole entry): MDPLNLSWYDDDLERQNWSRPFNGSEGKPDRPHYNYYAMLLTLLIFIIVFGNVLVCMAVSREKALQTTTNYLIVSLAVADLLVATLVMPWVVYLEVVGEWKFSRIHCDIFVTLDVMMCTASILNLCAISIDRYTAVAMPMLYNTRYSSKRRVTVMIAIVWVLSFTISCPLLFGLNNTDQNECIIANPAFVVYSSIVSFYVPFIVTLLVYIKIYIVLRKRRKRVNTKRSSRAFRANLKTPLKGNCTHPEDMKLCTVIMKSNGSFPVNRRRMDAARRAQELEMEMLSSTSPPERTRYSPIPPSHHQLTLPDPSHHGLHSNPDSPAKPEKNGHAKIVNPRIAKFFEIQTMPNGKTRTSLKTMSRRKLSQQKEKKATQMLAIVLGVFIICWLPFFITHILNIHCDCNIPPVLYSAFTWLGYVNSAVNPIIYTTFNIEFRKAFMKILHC

Row | SMILES | Ki [nM]
1 | CCN1CCC[C@H]1CNC(=O)c1cc(I)cc(OC)c1OC | 0.05
2 | O=c1[nH]c2ccccc2n1C1CCN(CCCC(c2ccc(F)cc2)c2ccc(F)cc2)CC1 [1-(1-(4,4-bis(4-fluorophenyl)butyl)piperidin-4-yl)-1H-benzo[d]imidazol-2(3H)-one] | 0.19
3 | OCCN1CCN(CC/C=C2/c3ccccc3Sc3ccc(C(F)(F)F)cc32)CC1 [(cis) 2-{4-[3-(2-Trifluoromethyl-thioxanthen-9-ylidene)-propyl]-piperazin-1-yl}-ethanol(Flupentixol)] | 0.48
4 | CC(C)C[C@H]1C(=O)N2CCC[C@H]2[C@]2(O)O[C@](NC(=O)[C@@H]3C=C4c5cccc6[nH]c(Br)c(c56)C[C@H]4N(C)C3)(C(C)C)C(=O)N12 [Bromocriptine+ (GTP+)] | 0.69
5 | CCCN1CCCC(c2cccc(O)c2)C1 (configuration not stated) [CAS_85976-54-1] | 5620
6 | CCN1CCCC1CNC(=O)c1cc(S(N)(=O)=O)ccc1OC (configuration not stated) [N-[(1-ethylpyrrolidin-2-yl)methyl]-2-methoxy-5-sulfamoylbenzamide] | 14.4
7 | O=C(O)c1ccccc1C(=O)Nc1cccc2ccccc12 [NPA,(+)] | 7.07
